The values below come from patent US9862717B2 (Merck Patent GmbH, priority 2014, dated 2018).

In the first assay the target is T1, CDK8/CycC (Homo sapiens, UniProt P49336).
T1 construct: purchased Invitrogen PV4402
T1 sequence (P49336 whole entry): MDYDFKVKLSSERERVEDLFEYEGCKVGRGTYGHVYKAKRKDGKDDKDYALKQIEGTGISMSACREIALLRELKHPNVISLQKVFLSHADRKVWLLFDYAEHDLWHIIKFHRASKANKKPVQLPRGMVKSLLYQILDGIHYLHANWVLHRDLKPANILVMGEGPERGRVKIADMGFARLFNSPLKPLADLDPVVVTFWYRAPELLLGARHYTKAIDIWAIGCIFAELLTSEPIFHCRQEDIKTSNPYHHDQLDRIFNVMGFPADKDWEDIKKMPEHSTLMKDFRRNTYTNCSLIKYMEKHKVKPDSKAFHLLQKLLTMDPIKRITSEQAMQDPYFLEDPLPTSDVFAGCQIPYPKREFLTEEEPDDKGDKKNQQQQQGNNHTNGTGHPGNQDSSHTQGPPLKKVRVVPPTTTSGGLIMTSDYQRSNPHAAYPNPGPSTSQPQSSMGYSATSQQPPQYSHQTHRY
T1 sequence (P24863 whole entry partner): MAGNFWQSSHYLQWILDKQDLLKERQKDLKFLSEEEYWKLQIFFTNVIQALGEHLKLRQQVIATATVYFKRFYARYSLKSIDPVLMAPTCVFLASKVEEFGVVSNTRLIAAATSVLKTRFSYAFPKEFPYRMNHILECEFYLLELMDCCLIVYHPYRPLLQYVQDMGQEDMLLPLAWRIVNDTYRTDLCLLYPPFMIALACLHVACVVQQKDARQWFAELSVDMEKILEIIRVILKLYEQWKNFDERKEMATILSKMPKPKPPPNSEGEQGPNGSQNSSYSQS
The experiment in a line: FRET based Lanthascreen binding competition assay for CDK8 inhibitory activity. Particulars: CDK8 co-expressed with CycC; class symbols; read-out: IC50. The procedure, abridged: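 Competition binding of a dye-labeled ATP-competitive Alexa647 probe to CDK8 co-expressed with CycC, Eu-labeled via biotinylated anti-His antibody/streptavidin.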
Consider `COc1ccccc1[C@@H]1CCCN1C(=O)c1cnc2[nH]nc(C)c2c1` [compound 143, [(S)-2-(2-Methoxy-phenyl)-pyrrolidin-1-yl]-(3-methyl-1H-pyrazolo[3,4-b]pyridin-5-yl)-methanone], for which the IC50 is 0.01 to 0.1 µM.

Regarding `CC(C)Cc1n[nH]c2ccc(C(=O)N3CCC[C@H]3c3ccc(Cl)cc3)cc12` [compound 31], the IC50 is under 0.01 µM.

Take `Cc1n[nH]c2ncc(C(=O)N3CCCC3c3ccc(C(C)C)cc3)cc12` (racemic) [compound 192, [2-(4-Isopropyl-phenyl)-pyrrolidin-1-yl]-(3-methyl-1H-pyrazolo[3,4-b]pyridin-5-yl)-methanone]: the IC50 is under 0.01 µM.

Take `Cc1n[nH]c2ncc(C(=O)N3CCC3c3ccc(Cl)cc3)cc12` (centres unmarked) [compound 55, [2-(4-Chloro-phenyl)-azetidin-1-yl]-(3-methyl-1H-pyrazolo[3,4-b]pyridin-5-yl)-methanone]: the IC50 lay within 0.01 to 0.1 µM.

Consider `Cc1n[nH]c2ncc(C(=O)N3CCC[C@H]3c3ccc(Cl)c(C#N)c3)cc12` [compound 252, 2-Chloro-5-[(S)-1-(3-methyl-1H-pyrazolo[3,4-b]pyridine-5-carbonyl)-pyrrolidin-2-yl]-benzonitrile], for which the IC50 was in the range of 0.1 to 1 µM.

For `Cc1n[nH]c2ncc(C(=O)N3CC[C@H](c4ccccc4)C3)cc12` [compound 40, (3-Methyl-1H-pyrazolo[3,4-b]pyridin-5-yl)-((R)-3-phenyl-pyrrolidin-1-yl)-methanone], the half-maximal inhibitory concentration (IC50) fell in the range of 0.1 to 1 µM.

Regarding `COc1cccc([C@@H]2CCCN2C(=O)c2cnc3[nH]nc(C)c3c2)c1` [compound 222, [(S)-2-(3-Methoxy-phenyl)-pyrrolidin-1-yl]-(3-methyl-1H-pyrazolo[3,4-b]pyridin-5-yl)-methanone], the IC50 was in the range of 0.1 to 1 µM.

In the case of `CSc1ccccc1[C@H]1CCCN1C(=O)c1cnc2[nH]nc(C)c2c1` [compound 34, (3-Methyl-1H-pyrazolo[3,4-b]pyridin-5-yl)-[(R)-2-(2-methylsulfanyl-phenyl)-pyrrolidin-1-yl]-methanone], the IC50 was 0.1 to 1 µM.

For `Cc1n[nH]c2ncc(C(=O)N3CCC[C@@H]3c3ccc(C(C)C)cc3)cc12` [compound 197, [(R)-2-(4-Isopropyl-phenyl)-pyrrolidin-1-yl]-(3-methyl-1H-pyrazolo[3,4-b]pyridin-5-yl)-methanone], the IC50 was in the range of 0.1 to 1 µM.

On to `O=C(c1cnc2[nH]nc(C(F)(F)F)c2c1)N1CCCC1c1ccc(Cl)cc1` (centres unmarked) [compound 71, [2-(4-Chloro-phenyl)-pyrrolidin-1-yl]-(3-trifluoromethyl-1H-pyrazolo[3,4-b]pyridin-5-yl)-methanone], for which the IC50 is 0.01 to 0.1 µM.

On to `O=C(c1cnc2[nH]ncc2c1)N1CCC[C@H]1c1ccc(Cl)cc1` [compound 239, [(S)-2-(4-Chloro-phenyl)-pyrrolidin-1-yl]-(1H-pyrazolo[3,4-b]pyridin-5-yl)-methanone], for which the IC50 was in the range of 0.1 to 1 µM.

Staying with this assay, now noted: IC50 [μM], CDK8 co-expressed with CycC; class symbols.
As to `Nc1n[nH]c2ccc(C(=O)N3CCCC3c3ccc(Cl)cc3)cc12` (racemic) [compound 78, (3-Amino-1H-indazol-5-yl)-[2-(4-chloro-phenyl)-pyrrolidin-1-yl]-methanone], the IC50 is under 0.01 µM.

`Nc1n[nH]c2ccc(C(=O)N3CCC[C@@H]3c3ccc(Br)cc3)cc12` [compound 77, (3-Amino-1H-indazol-5-yl)-[(R)-2-(4-bromo-phenyl)-pyrrolidin-1-yl]-methanone] yielded an IC50 of 0.1 to 1 µM.

Turning to `Cc1n[nH]c2ccc(C(=O)N3CC[C@@H]3c3ccc(Cl)cc3)cc12` [compound 205, [(R)-2-(4-Chloro-phenyl)-azetidin-1-yl]-(3-methyl-1H-indazol-5-yl)-methanone], the IC50 lay within 0.1 to 1 µM.

As to `Nc1n[nH]c2ccc(C(=O)N3CCCC[C@H]3c3ccc(F)cc3)cc12` [compound 92, (3-Amino-1H-indazol-5-yl)-[(S)-2-(4-fluoro-phenyl)-piperidin-1-yl]-methanone], the IC50 fell in the range of 0.01 to 0.1 µM.

`O=C(c1ccc2[nH]ncc2c1)N1CCC[C@H]1c1ccc(Br)cc1` [compound 156] came in with an IC50 of 0.01 to 0.1 µM.

As for `CNc1n[nH]c2ccc(C(=O)N3CCC[C@H]3c3ccc(Cl)cc3)cc12` [compound 236, [(S)-2-(4-Chloro-phenyl)-pyrrolidin-1-yl]-(3-methylamino-1H-indazol-5-yl)-methanone], the IC50 was under 0.01 µM.
